Data on five molecules can be found in patent US10918624B2, “Anti-cancer azole compounds” (Imam Abdulrahman Bin Faisal University, priority 2019, dated 2021).

The subject of data set [1] is HCT-116 cells. The data set can be described thus: Cancer cells viability by MTT assay. The conditions noted are these: for cancer cell viability (% of control) / effect on cancer cells survivability (in words): 48 hrs; for cancer cell viability (% of control) / effect on cancer cells survivability (in words) / attenuating cancer cells proliferation (in words): HCT-116; for effect on cancer cells survivability (in words): 100, 500 and 750 ug/mL; for dose dependence of effect on cancer cell survivability: HCT-116, FIG. 11. The method, then: HCT-116 cells were grown as previously described method by Khan et al. [“Fluorescent magnetic submicronic polymer (FMSP) nanoparticles induce cell death in human colorectal carcinoma cells” Artif Cells Nanomed Biotechnol. (2018 Jul. 25) 1-7, doi: 10.1080/21691401.2018.1491476]. In brief, HCT-116 cells were grown in the DMEM, 10% fetal bovine serum, L-glutamine, selenium chloride, penicillin, and streptomycin. The cells were culture in incubator (Heracell 150i, Thermo-scientific, USA) containing 5% CO2 at 37°. Finally, confluence cells were seeded into 96-well cell plates and once the cells become 80% confluence, the cancer cells were treated with different concentrations (100 μg/mL, 500 μg/mL and 750 μg/mL) of BG-(Tri)2, BG-(ATri)2, BG-(Atet)2, BG-(Imi)2, BG-(H3PO4)2, respectively. Thereafter, the treated cancer cells were microscopically monitored after 24 hrs and 48 hrs intervals. Three samples were examined from each experiment.
The effects of BG-(Tri)2, BG-(ATri)2, BG-(Atet)2, BG-(Imi)2, BG-(H3PO4)2 on cancer cells were determined by MTT assay. The cancer cells were seeded with 6×10^4 cells/mL in 96-well culture plates containing DMEM, 10% Fetal bovine serum, penicillin, and streptomycin and were incubated in CO2 incubator till they become 80% confluence. Then, cancer cells were treated with BG-(Tri)2, BG-(ATri)2, BG-(Atet)2, BG-(Imi)2, BG-(H3PO4)2 at concentrations of 100 μg/mL, 500 μg/mL and 750 μg/mL, respectively. […] MTT (5.0 mg/mL) solution was added in each well and cells were again incubated for 4 hrs in the CO2 incubator and finally media was changed with the addition of DMSO. The color intensity of each sample was measured using an ELISA plate reader (Biotek Instruments, USA) at wavelength 570 nm.
The following formula was used to calculate percentage of cell viability: % of Cell viability=Optical density (O.D) of BG-(Tri)2,BG-(ATri)2,BG-(Atet)2,BG-(Imi)2,BG-(H3PO4)2 cells/Optical density (O.D) of control cells×100 Statistical Analysis:
The mean±standard deviation (SD) from control and BG-(Tri)2, BG-(ATri)2, BG-(Atet)2, BG-(Imi)2, BG-(H3PO4)2 treated groups were calculated. All statistical analyses were completed with GraphPad Prism 6 (GraphPad Software). The difference between control and BG-(Tri)2, BG-(ATri)2, BG-(Atet)2, BG-(Imi)2, BG-(H3PO4)2 groups by a one-way ANOVA test (P<0.05). P<0.05 was considered as statistically significant.

Data set [2] relates to HCT-116 cells. The data set can be described thus: Cancer cell morphology (inverted microscope). Type of data set: cell-based, human. The conditions noted are these: for cancer cell morphology change: 48 hours, HCT-116; for microscopic evaluation of treated cancer cells (overall): HCT-116, versus control. The source says: Three samples were examined from each experiment.

Data set [3] is described as follows: Thermogravimetric analyses (TGA). Type of data set: physicochemical. The conditions noted are these: 25° C. to 700° C., 10° C. min, nitrogen. On the procedure: TGA were carried on Perkin-Elmer, simultaneous thermal analyzer (STA6000, PerkinElmer, Ohio, USA). TGA data of azole-BG samples were obtained at temperature in the range of 25° C. to 700° C. at the rate of 10° C. min under inert nitrogen flowing at a rate of 20 mL/min.

“Also recorded” adds a separate entry of the source.

Regarding `OC(CNc1ncn[nH]1)COCCCCOCC(O)CNc1ncn[nH]1` (stereo not drawn) [BG-(ATri)2], the results for the “cancer cell viability (% of control)” value in the data set with HCT-116 cells [1] (100 ug/mL), in the data set on HCT-116 cells [1] (500 ug/mL) and in the data set with HCT-116 cells [1] (750 ug/mL) were 28.12%, 25.62% and 24.68%, respectively. The “effect on cancer cells survivability (in words)” value (“effect … (in words)” below) in the data set on HCT-116 cells [1] is listed as “most profound effects on the cancer cells; also recorded: profound effects on cancer cells survivability”. The “attenuating cancer cells proliferation (in words)” value with HCT-116 cells [1] is “highly effective in attenuating cancer cells proliferation”. The “dose dependence of effect on cancer cell survivability” value (“dose dependence of effect” for short) in the data set with HCT-116 cells [1] was “dose dependent effects on cancer cell survivability”. Besides, the “cancer cell morphology change” value in the data set with HCT-116 cells [2] (100 μg/mL) is “significant levels of nucleus condensation and nuclear augmentation”; with HCT-116 cells [2] (500 μg/mL), “nuclear condensation and augmentation”; in the data set with HCT-116 cells [2] (750 μg/mL), “Significant loss of cell population; also recorded: strong nuclear condensation and augmentation and showed the beginning of cell membrane disruption”. For the same molecule, the “microscopic evaluation of treated cancer cells (overall)” value (“microscopic evaluation” below) in the data set with HCT-116 cells [2] is “not only affected the cancer cell membrane, but also induced nuclear condensation, augmentation and disintegration”.
As for `OC(CNc1nnn[nH]1)COCCCCOCC(O)CNc1nnn[nH]1` (stereo not drawn) [BG-(Atet)2], the “cancer cell viability (% of control)” value came out at 25% in the data set with HCT-116 cells [1] (100 ug/mL), 22.50% with HCT-116 cells [1] (500 ug/mL) and 18.75% in the data set on HCT-116 cells [1] (750 ug/mL). Further, the “effect … (in words)” value with HCT-116 cells [1] is recorded as “most profound effects on the cancer cells; also recorded: profound effects on cancer cells survivability”. The “attenuating cancer cells proliferation (in words)” value with HCT-116 cells [1] is recorded as “highly effective in attenuating cancer cells proliferation”. In the data set with HCT-116 cells [1], the “dose dependence of effect” value is recorded as “dose dependent effects on cancer cell survivability”. The “cancer cell morphology change” value in the data set with HCT-116 cells [2] (100 μg/mL) was “strong nucleus condensation and nuclear augmentation”; in the data set on HCT-116 cells [2] (500 μg/mL), “Further nucleus condensation and augmentation”; in the data set with HCT-116 cells [2] (500 μg/mL, listed as BG-(ATet)2), “nuclear condensation and augmentation”; in the data set on HCT-116 cells [2] (750 μg/mL) it was “significant loss of cell population”; in the data set on HCT-116 cells [2] (750 μg/mL, listed as BG-(ATet)2), “strong nuclear condensation and augmentation and showed the beginning of cell membrane disruption”. In addition, the “microscopic evaluation” value in the data set on HCT-116 cells [2] is “not only affected the cancer cell membrane, but also induced nuclear condensation, augmentation and disintegration”.
As to `O=P(O)(O)OCC(O)COCCCCOCC(O)COP(=O)(O)O` (stereo not drawn) [BG-(H3PO4)2], the “cancer cell viability (% of control)” value in the data set with HCT-116 cells [1] (100 ug/mL) was found to be 85.31%; in the data set on HCT-116 cells [1] (500 ug/mL), 55.93%; in the data set with HCT-116 cells [1] (750 ug/mL), 53.12%. Further, the “effect … (in words)” value in the data set with HCT-116 cells [1] was “profound effects on cancer cells survivability”. The “dose dependence of effect” value with HCT-116 cells [1] is listed as “dose dependent effects on cancer cell survivability”. Further, the “temperature of weight loss / degradation by TGA” value in data set [3] is “Above 200 °C”. Further, the “cancer cell morphology change” value in the data set with HCT-116 cells [2] (100 μg/mL) was “disintegrations of cancer cells”; with HCT-116 cells [2] (500 μg/mL), “strong nuclear condensation and augmentation”; in the data set with HCT-116 cells [2] (500 μg/mL, listed as BG-(H3PO4)) it was “nuclear condensation and augmentation”; in the data set on HCT-116 cells [2] (750 μg/mL), “strong nuclear condensation and augmentation”; in the data set with HCT-116 cells [2] (750 μg/mL, listed as BG-(H3PO4)), “strong nuclear condensation and augmentation and showed the beginning of cell membrane disruption”. Also, the “microscopic evaluation” value in the data set on HCT-116 cells [2] is “not only affected the cancer cell membrane, but also induced nuclear condensation, augmentation and disintegration”.
For `OC(COCCCCOCC(O)Cn1ccnc1)Cn1ccnc1` (stereo not drawn) [BG-(Imi)2], the “cancer cell viability (% of control)” value was found to be 25% in the data set with HCT-116 cells [1] (100 ug/mL), 21.87% with HCT-116 cells [1] (500 ug/mL) and 18.75% with HCT-116 cells [1] (750 ug/mL). Moreover, the “effect … (in words)” value with HCT-116 cells [1] is on record as “most profound effects on the cancer cells; also recorded: profound effects on cancer cells survivability”. Also, the “attenuating cancer cells proliferation (in words)” value with HCT-116 cells [1] was “highly effective in attenuating cancer cells proliferation”. In the data set with HCT-116 cells [1], the “dose dependence of effect” value is recorded as “dose dependent effects on cancer cell survivability”. The “cancer cell morphology change” value was “strong nucleus condensation and nuclear augmentation” with HCT-116 cells [2] (100 μg/mL); “further nucleus condensation and augmentation; also recorded: nuclear condensation and augmentation” with HCT-116 cells [2] (500 μg/mL); “significant loss of cell population; also recorded: strong nuclear condensation and augmentation and showed the beginning of cell membrane disruption” in the data set on HCT-116 cells [2] (750 μg/mL). In the data set with HCT-116 cells [2], the “microscopic evaluation” value is “not only affected the cancer cell membrane, but also induced nuclear condensation, augmentation and disintegration”.
As to `OC(COCCCCOCC(O)Cn1cncn1)Cn1cncn1` (stereo not drawn) [BG-(Tri)2], the results for the “cancer cell viability (% of control)” value with HCT-116 cells [1] (100 ug/mL), in the data set with HCT-116 cells [1] (500 ug/mL) and in the data set with HCT-116 cells [1] (750 ug/mL) were 75%, 26.86% and 21.87%, respectively. Besides, the “effect … (in words)” value with HCT-116 cells [1] is “most profound effects on the cancer cells; also recorded: profound effects on cancer cells survivability”. In addition, in the data set with HCT-116 cells [1], the “attenuating cancer cells proliferation (in words)” value is given as “highly effective in attenuating cancer cells proliferation”. In addition, the “dose dependence of effect” value with HCT-116 cells [1] is “dose dependent effects on cancer cell survivability”. For the same molecule, the “cancer cell morphology change” value in the data set on HCT-116 cells [2] (100 μg/mL) is “moderate levels of nucleus condensation and nuclear augmentation”; in the data set on HCT-116 cells [2] (500 μg/mL) it was “Strong nuclear condensation and augmentation and the beginning of cell membrane disruption”; with HCT-116 cells [2] (750 μg/mL), “significant loss of cell population; also recorded: nuclear condensation and augmentation”. Besides, in the data set on HCT-116 cells [2], the “microscopic evaluation” value was “not only affected the cancer cell membrane, but also induced nuclear condensation, augmentation and disintegration”.
